Reference: patent US6756200B2, “Aberrantly methylated genes as markers of breast malignancy” (The Johns Hopkins University School of Medicine, priority 2001, dated 2004)
Entries after “also recorded” stand apart in the source; their conditions may differ.

Columns and labels:
Type in all cases: cell-based, human
HOXA5 = HOXA5 mRNA re-expression by RT-PCR after 5-aza-dC; details: MDA-MB-231 cells; 0.75 μM 5-aza-dC
Method: RT-PCR was performed using primers: 5′ […]-3′ (sense; SEQ ID NO:75) and 5′[…]-3′ (antisense; SEQ ID NO:76).

cyclin D2 = experiment: Cyclin D2 mRNA re-expression by RT-PCR after 5-aza-dC or TSA; details: MDAMB231 and MCF7 cells
Method: RT-PCR. […] PCR was performed using the primers [NT] (sense; SEQ ID NO:15) and [NT] […] (sense; SEQ ID NO: 17) and [NT] […] (sense; SEQ ID NO:19) and [NT] antisense; SEQ ID NO:20).

cyclin D2 promoter = experiment: Methylation-specific PCR of the cyclin D2 promoter after 5-aza-dC; details: MDAMB231 and MCF7 cells; 0.75 μM 5-aza-dC
Method: Methylation-specific PCR (MSP). One μg genomic DNA or the 50 ul extract of microdissected cells was treated with sodium bisulfite as described in Herman J G, (1996), and was analyzed by MSP using primer sets located within the CpG-rich island in the cyclin D2 promoter. Primers specific for unmethylated DNA were 5′-[…]-3′ (sense; SEQ ID NO:21) and 5′-[…]-3′ (antisense; SEQ ID NO:22) and yielded a 223 base-pairs PCR product. Primers specific for methylated DNA were 5′-[…]-3′ (sense; SEQ ID NO:23) and 5′-[…]-3′ (antisense; SEQ ID NO:24) and yielded a 276 base-pair PCR product. The PCR conditions were as follows: 1 cycle of 95° C. for 5 min; 35 cycles of 95° C. for 30s, 55° C. for 30s and 72° C. for 45s; and 1 cycle of 72° C. for 5 min.

σ CpG island = experiment: Methylation-specific PCR of the σ CpG island after 5-aza-dC; details: Hs578t and MDA-MB-435 cells; 0.75 μM 5-aza-dC for 3 days
Method: Methylation-specific PCR (MSP). One μg genomic DNA was treated with sodium bisulfite as described in (Herman, et al. (1996) Proc. Natl. Acad. Sci. USA 93, 9821-9826), and was analyzed by MSP using a primer set that covered CG dinucleotide numbers 3, 4, 8 and 9. Primers specific for methylated DNA: 5′-[…]-3′ (sense; SEQ ID NO:37) and 5′-[…]-3′ (antisense; SEQ ID NO:38), and primers specific for unmethylated DNA: 5′-[…]-3′ (sense; SEQ ID NO:39) and 5′-[…]-3′(antisense; SEQ ID NO:40) yielded a 105-107 bp PCR product. The PCR conditions were as follows: 1 cycle of 95° C. for 5 min; 31 cycles of 95° C. for 45s, 56° C. for 30s and 72° C. for 30s; and 1 cycle of 72° C. for 4 min.
(§1) Cells were seeded at a density of 2×10^6 cells per 100-mm plate.

σ = σ gene expression by RT-PCR after 5-aza-dC; details: Hs578t and MDA-MB-435 cells; 0.75 μM 5-aza-dC for 3 days
Method: as §1
RT-PCR. […] PCR was performed using the σ-specific primers 5′-[…]-3′ (SEQ ID NO:41) and 5′-[…]-3′ (SEQ ID NO:42) using buffer conditions described herein. The PCR conditions were: 1 cycle of 95° C. for 5 min; 30 cycles of 60° C. for 45s, 72° C. for 45s and 95° C. for 45s. PCR samples were resolved by electrophoresis in a 2% agarose gel.

14.3.3σ = 14.3.3σ expression in the same treated samples; details: same samples: MDA-MB-231 and MCF-7 cells treated with 5-aza-deoxyC or TSA
Text: (§2) Cell lines and finite life span cultures Cell lines were obtained from ATCC (Rockville, Md.) and grown according to conditions specified. Also utilized were three independent cultures of finite life span human mammary epithelial cells (HMEC): 16637 (Clonetics, Walkersville, Md.) and 1-26, 3-14 (kindly provided by Dr. Steve Ethier, Univ. Michigan, Ann Arbor, Mich.).

WT1 = WT1 expression by RT-PCR after treatment of breast cancer cell lines with 5-aza-dC or TSA
Text: as §2
RT-PCR for WT1 mRNA Methods for RNA extraction and RT-PCR are known to those of skill in the art. The sequences of the primers used are as follows: for amplifying the 555 bp region surrounding WT1 exon 5, 5′-[…]-3′ (sense, nucleotides 882-901; Q ID NO:1) and 5′-[…]-3′ (antisense, nucleotides 1416-1437; SEQ ID NO:2); for amplifying the 382 bp region surrounding the KTS insert, 5′-[…]-3′ (sense, nucleotides 1320-1339; SEQ ID NO:3) and 5′-[…]-3′ (antisense, nucleotides 1685-1702; SEQ ID NO:4). Amplification was performed using a hot-start protocol: samples were heated to 94° C. for 4 minutes and then cooled to 80° C. prior to the addition of Taq polymerase (RedTaq, Sigma, St. Louis, Mo.). Samples were then heated to 94° C. for 30 seconds followed by either 50° C. for 30 seconds (for the KTS primers) or 56° C. for 30 seconds (for the Exon 5 primers) and then 72° C. for 1 minute for 40 cycles. PCR products were resolved by electrophoresis, using a 2% agarose gel for the exon 5-splice variants and a 12% polyacrylamide gel to resolve the KTS insert variants. Co-amplification of the ribosomal RNA 36B4 was performed as an internal control using the following primers: 5′-[…]-3′ (sense; SEQ ID NO:5) and 5′-[…]-3′ (antisense; SEQ ID NO:6).

MDA-MB-231 cells = experiment: Growth inhibition (%) by cell counting with Trypan Blue
Text: (§3) Cell cultures Human epithelial mammary cells (HEMC) from reduction mammoplasty including three mortal strains, 184, 48R and 172R, and two immortal strains, 184A1 and 184B5, were obtained and cultured according to the protocols designed by Dr Martha Stampfer (see the HMEC Homepage, http://www.lbl.gov/*mrgs/index.htlm) using Clonetics (Walkersville, Md., USA) reagents. Human breast cancer cell lines were maintained in Dulbecco's modified Eagle's medium (GIBCO) (Hs578t,MCF-7, MDA-MB-231 and T47D) or IMEM medium (Biofluids) (MDA-MB-435, MDA-MB-468, ZR751) with 5% fetal calf serum (FCS). For drug treatments, exponentially growing cells were seeded in 10 cm^2 plates at a density of 36105 cells/plate or in 6-well plates at 16105 cells/well. Cells were allowed to attach overnight before the addition of the appropriate concentration of 5-Aza-2′ deoxycytidine (5-Aza-CdR) (Sigma), Trichostatin A (TSA) (Sigma) or RA(Sigma). When reduction of retinoids was required, cells were treated in either medium with 0.5% FCS or charcoal-dextran stripped FCS (Hyclone). At the indicated time points, both attached and detached cells were harvested, counted with Trypan Blue (Life Technologies) and processed for DNA or RNA extraction. 5-Aza-CdR was dissolved in 0.45% NaCl containing 10 mM sodium phosphate (pH 6.8). Trichostatin A and all-trans-retinoic acid (RA) (Sigma) were reconstituted in absolute ethanol (solvent).

MCF-7 cells = experiment: Pon A induction of HOXA5 in MCF-7 clones with ecdysone-inducible HOXA5: p53 pathway and apoptosis
Text: Immunoblot Analysis: Proteins were visualized by Western analysis and 10% SDS-PAGE. The primary antibodies [anti-HOXA5 (HOXA5-2, BABCO), anti-p53 (AB-6, Oncogene Science), or anti-β-actin (AC-15, Sigma), anti-p21 (15091A, Pharmingen), anti-Mdm2 (65101A, Pharmingen), anti-PARP (AB-2, Oncogene Sciences), anti-dynein (Zymed) and anti- Na+, K+-ATPase (Ed Benz, Johns Hopkins) (also used as loading controls, with actin)] were used at 1:1000 dilution.
To test this possibility, breast cancer cells, MCF-7 and ZR75.1, which harbor wildtype p53 genes, were transfected with the full length HOXA5 and the ΔHOXA5 (homeodomain-deleted) expression plasmids and tested for colony-forming ability. No surviving colonies were obtained from HOXA5-transfected cells whereas those transfected with ΔHOXA5 and the vector control generated colonies with equal efficiency. To obtain stable cultures that could express HOXA5, clones of MCF-7 cells were generated in which the HOXA5 gene was placed under the control of an ecdysone-inducible promoter. Within 3 hours after induction of HOXA5 expression by the ecdysone analog, Ponasterone A (Pon A), the levels of p53 mRNA rose by 2-fold.

RAR β = RAR β expression by RT-PCR after drug treatment
Method: Human breast cancer cell lines were maintained in Dulbecco's modified Eagle's medium (GIBCO) (Hs578t,MCF-7, MDA-MB-231 and T47D) or IMEM medium (Biofluids) (MDA-MB-435, MDA-MB-468, ZR751) with 5% fetal calf serum (FCS). For drug treatments, exponentially growing cells were seeded in 10 cm^2 plates at a density of 36105 cells/plate or in 6-well plates at 16105 cells/well. […] When reduction of retinoids was required, cells were treated in either medium with 0.5% FCS or charcoal-dextran stripped FCS (Hyclone). At the indicated time points, both attached and detached cells were harvested, counted with Trypan Blue (Life Technologies) and processed for DNA or RNA extraction. 5-Aza-CdR was dissolved in 0.45% NaCl containing 10 mM sodium phosphate (pH 6.8). Trichostatin A and all-trans-retinoic acid (RA) (Sigma) were reconstituted in absolute ethanol (solvent).

RAR β2 promoter = experiment: Methylation of RAR β2 promoter CpG island (Southern blotting, MSP) after drug treatment; details: MCF7 cells; in the presence of RA
breast cancer cell lines = experiment: Growth inhibition of a panel of breast cancer cell lines by RA; details: T47D, MDA-MB-435, MCF7 and ZR75-1 cell lines; 1 μM RA, 48 h
Text: as §3, with “Trichostatin A and all-trans-retinoic acid (RA) (Sigma) were reconstituted in absolute ethanol (solvent).” left out

[1] = 0.4 mM 5-Aza-CdR and/or 1 μM RA
[2] = 2 days, 100 ng/ml TSA and/or RA

## Nc1ncn([C@H]2C[C@H](O)[C@@H](CO)O2)c(=O)n1 [5-aza-dC, 5-aza-2′-deoxycytidine]
HOXA5
  expression of HOXA5 mRNA: re-initiated
Cyclin D2; 0.75 μM 5-aza-dC
  cyclin D2 mRNA expression (RT-PCR): restored
Cyclin D2 promoter
  cyclin D2 promoter methylation (MSP): partially demethylated
σ CpG island
  methylation of the σ CpG rich region (MSP): demethylation
σ
  σ gene expression (RT-PCR): reactivation of gene expression
14.3.3σ
  expression of 14.3.3σ: restored expression
WT1; MCF-7 cells, 0.75 μM 5-aza-dC, listed as 5-aza-deoxyC
  WT1 expression: not seen; also recorded: did not cause WT1 expression
WT1; MDA-MB-231 cells, 0.75 μM 5-aza-dC, listed as 5-aza-deoxyC
  WT1 expression: results in re-expression of the gene; also recorded: resulted in WT1 expression
MDA-MB-231 cells; [1]
  growth inhibition: 63%

## CC(C)CC[C@@H](O)[C@](C)(O)[C@H]1CC[C@@]2(O)C3=CC(=O)[C@@H]4C[C@@H](O)[C@@H](O)C[C@]4(C)[C@H]3CC[C@]12C [Pon A, Ponasterone A]
MCF-7 cells
  DNA laddering: observed
  levels of Bax protein: not accompanied by a detectable change
  p53, p21, Mdm2 and HOXA5 induction (Western blotting): 2-5 fold
MCF-7 cells; acridine orange staining
  cells with micronucleus formation, membrane blebbing and ghost cell features: 70%
MCF-7 cells; after 48 hours
  cell death: 80-90%
MCF-7 cells; by 12 hours
  poly (ADP-ribose) polymerase cleavage: underwent cleavage
MCF-7 cells; by 24 hours
  cell morphology: cell shrinkage
MCF-7 cells; within 3 hours after induction
  levels of p53 mRNA: 2 fold

## CC1=C(/C=C/C(C)=C/C=C/C(C)=C/C(=O)O)C(C)(C)CCC1 [RA, all-trans-retinoic acid]
RAR β; T47D, MDA-MB-435, MCF7 and ZR75-1 cell lines, 1 μM RA, 48 h
  RAR β expression: induction of RAR β expression
RAR β2 promoter
  methylation at RAR β2: persistence of methylation
Breast cancer cell lines
  growth inhibition: growth inhibition
MDA-MB-231 cells; [1]
  growth inhibition: 52%
MDA-MB-231 cells; [2]
  growth inhibition: 52%

## CC(/C=C/C(=O)NO)=C\[C@@H](C)C(=O)c1ccc(N(C)C)cc1 [TSA, Trichostatin A]
RAR β; MDA-MB-231 cells, 2 days, 100 ng/ml TSA with 1 μM RA
  RAR β mRNA expression (RT-PCR): can reactivate RAR β expression
Cyclin D2; 100 ng/ml TSA
  cyclin D2 mRNA expression (RT-PCR): re-expression
14.3.3σ
  expression of 14.3.3σ: restored expression
WT1; MDA-MB-231 and MCF-7 cells (either cell line), 100 ng/ml TSA
  WT1 expression: no effect; also recorded: nor did TSA restore expression
MDA-MB-231 cells; [2]
  growth inhibition: 77%
